Measured values: patent US4382084A, “Antibiotics” (Beecham Group Limited, priority 1975, dated 1983)
Each block holds one compound with its values, some of them ahead of it.

Columns and labels:
[1] = target: Staphylococcus aureus (Russell) β-lactamase (Staphylococcus aureus, UniProt P00807); experiment: β-lactamase inhibition assay (Belgian Patent No. 827926); assay type: biochemical; settings: enzyme of Staphylococcus aureus (Russell); read-out: Approximate I50 (converted)
Protocol: (§1) When the compound prepared by the method of Example 1 was tested against certain enzymes by the β-lactamase inhibition assay described in Belgian Patent No. 827926 the following ^I 50 values were obtained: […]

[2] = tested on: E. coli JT10 β-lactamase; experiment: as above; assay type: biochemical; settings: enzyme of E. coli JT10
Protocol: as §1

[3] = target: Klebsiella aerogenes AE70 β-lactamase; experiment: as above; assay type: biochemical; settings: enzyme of Klebsiella aerogenes AE70
Protocol: as §1

[4] = target: E. coli JT4 β-lactamase (Escherichia coli, UniProt P62593); experiment: as above; assay type: biochemical; settings: enzyme of E. coli JT4; read-out: Approximate I50 (converted)
Protocol: as §1

[5] = tested on: Staphylococcus aureus Russell; experiment: MIC test of synergy with ampicillin; assay type: cell-based; settings: ampicillin administered separately, read-out: MIC of ampicillin alone (not inhibited by)
Protocol: b. […] The following test results were obtained using a strain of Staphylococcus aureus Russell which is neither inhibited by 250 μg/ml of ampicillin nor inhibited by 5 μg/ml of synergist aministered separately.

[6] = Acute toxicity in mice; settings: mouse, in vivo

Sequence of E. coli JT4 β-lactamase (P62593 24-286 limits assumed): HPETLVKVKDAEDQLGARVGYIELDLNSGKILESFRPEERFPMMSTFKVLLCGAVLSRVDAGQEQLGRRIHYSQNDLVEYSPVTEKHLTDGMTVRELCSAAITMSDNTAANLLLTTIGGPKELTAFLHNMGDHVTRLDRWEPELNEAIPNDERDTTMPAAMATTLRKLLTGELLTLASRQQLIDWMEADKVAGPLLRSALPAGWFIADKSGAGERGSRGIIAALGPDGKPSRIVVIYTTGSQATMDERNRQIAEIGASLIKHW

Structure (SMILES): O=C(OCc1ccccc1)[C@H]1/C(=C/CN(Cc2ccccc2)Cc2ccccc2)O[C@@H]2CC(=O)N21 [Example 1]
IC50 [1]: 128 µM
Approximate I50 [2]: 0.24 mg/mL
Approximate I50 [3]: 0.40 mg/mL
IC50 [4]: 42.7 µM

MIC [5]: > 250 µg/mL
Structure (SMILES): CC1(C)S[C@@H]2[C@H](NC(=O)[C@H](N)c3ccccc3)C(=O)N2[C@H]1C(=O)O [ampicillin]

Structure (SMILES): C=CCN(CC=C)C/C=C1\O[C@@H]2CC(=O)N2[C@H]1C(=O)OCc1ccccc1 [Example 8, Benzyl diallylaminodeoxyclavulanate]
LD50 ([6]; oral route): > 500 mg/kg
LD50 ([6]; sc, sub-cutaneous route): > 500 mg/kg

Structure (SMILES): CCCN(C/C=C1\O[C@@H]2CC(=O)N2[C@H]1C(=O)O)CCC [Example 12, 9-(N,N-dipropylamino)-9-deoxyclavulanio acid]
LD50 ([6]; oral route): > 500 mg/kg
LD50 ([6]; sc, sub-cutaneous route): > 500 mg/kg
